# Experimental data reported in US20230158100A1, “TREATMENT OF PANX1 ASSOCIATES DISEASES” (NURITAS LIMITED, priority 2020, published 2023).
# Like-named read-outs stand apart in the source and are kept apart here. No end group written: not given here. Cy5 = Cy5 cyanine dye label
# T1: SLC35F2 (Homo sapiens, UniProt Q8IXU6)
# T1 construct: individually expressing 5528 full-length human plasma membrane proteins and secreted proteins; host or cells: HEK293 (fixed and live)
# T1 sequence (Q8IXU6 1-374): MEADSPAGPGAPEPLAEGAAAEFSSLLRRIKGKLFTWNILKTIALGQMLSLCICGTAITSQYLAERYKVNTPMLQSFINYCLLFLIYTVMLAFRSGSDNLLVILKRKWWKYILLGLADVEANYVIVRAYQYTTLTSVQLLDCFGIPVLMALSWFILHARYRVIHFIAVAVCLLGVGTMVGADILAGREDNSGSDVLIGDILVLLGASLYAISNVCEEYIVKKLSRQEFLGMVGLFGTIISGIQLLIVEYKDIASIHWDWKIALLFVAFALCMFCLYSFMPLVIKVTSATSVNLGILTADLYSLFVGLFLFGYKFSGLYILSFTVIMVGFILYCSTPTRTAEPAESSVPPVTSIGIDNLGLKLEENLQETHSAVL
# T2: SLC35F2 (human, UniProt Q8IXU6 1-374)
# T2 construct: whole, on cells
# T2 sequence (looked up): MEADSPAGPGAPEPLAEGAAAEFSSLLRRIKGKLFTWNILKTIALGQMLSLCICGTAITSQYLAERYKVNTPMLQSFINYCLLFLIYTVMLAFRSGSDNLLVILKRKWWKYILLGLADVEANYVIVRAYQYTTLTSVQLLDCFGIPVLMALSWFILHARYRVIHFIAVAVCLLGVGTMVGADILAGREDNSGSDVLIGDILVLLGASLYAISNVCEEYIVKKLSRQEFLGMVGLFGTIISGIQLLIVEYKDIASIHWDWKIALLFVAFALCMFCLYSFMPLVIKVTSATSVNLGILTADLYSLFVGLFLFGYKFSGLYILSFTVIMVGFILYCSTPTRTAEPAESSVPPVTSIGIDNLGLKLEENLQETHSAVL
# What was measured:
# [1] = cited from earlier work
# [2] = Werle and Bernkop-Schnürch 2006; cited from earlier work
# [3] = test system: lipoproteins; conditions: binding to lipoproteins; cited from earlier work
# [4] = test system: PANX1; assay: Retrogenix cell microarray, confirmation on fixed and live cells; type: binding, human; conditions: for binding / specific interaction with PANX1: fixed HEK293 cells, 0.01 and 0.05 μg/ml, two separate expression clones
# PANX1, sequence (Q96RD7 1-400 limits assumed): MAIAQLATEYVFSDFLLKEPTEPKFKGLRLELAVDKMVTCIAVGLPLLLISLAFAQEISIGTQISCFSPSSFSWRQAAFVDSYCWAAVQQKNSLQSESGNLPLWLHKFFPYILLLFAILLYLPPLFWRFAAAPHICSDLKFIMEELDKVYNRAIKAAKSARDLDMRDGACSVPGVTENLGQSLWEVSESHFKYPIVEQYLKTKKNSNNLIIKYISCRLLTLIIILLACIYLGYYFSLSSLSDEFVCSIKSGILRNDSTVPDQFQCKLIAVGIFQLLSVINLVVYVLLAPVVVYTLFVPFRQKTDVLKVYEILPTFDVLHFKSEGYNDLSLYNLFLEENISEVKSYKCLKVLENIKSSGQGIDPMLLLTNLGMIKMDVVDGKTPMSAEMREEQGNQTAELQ
# Description: (§1) CY5-labelled peptide (SEQUENCE ID NO. 1; (0.01 & 0.05 μg/ml) was screened for binding against fixed HEK293 Cells expressing 5528 human plasma membrane proteins. Screening was carried across two replicates and initial hits were selected and screened in more specific confirmation assay.
# (§2) To confirm extracellular membrane binding of the peptide in culture, receptor screening was carried out (Retrogenix). Retrogenix's cell microarray technology was used to screen for specific cell surface target interactions of a CY5 labelled peptide (pep_HTWCFL the CY5 labelled version of SEQUENCE ID NO. 1).
# (§3) Under this condition, the test peptide was screened for binding against fixed human HEK293 cells, individually expressing 5528 full-length human plasma membrane proteins and secreted proteins.
# (§4) Each primary hit was then re-expressed, along with two control receptors (CD20 (MS4A1) and EGFR), and re-tested with 0.01 μg/ml and 0.05 μg/ml test peptide, equal concentrations of a control peptide, and other positive and negative control treatments. […] Among these were PANX1 (from two separate expression clones), SLC35F2 and TACR1.
# [5] = target: T1, SLC35F2; assay: as above; type: binding; conditions: for binding / specific interaction with SLC35F2: fixed HEK293 cells, 0.01 and 0.05 μg/ml
# Description: as §1, §2, §3, §4
# [6] = target: T3, TACR1 (Substance P receptor) (Homo sapiens, UniProt P25103); assay: as above; type: binding; conditions: for binding / specific interaction with TACR1: fixed HEK293 cells, 0.01 and 0.05 μg/ml
# T3 construct: individually expressing 5528 full-length human plasma membrane proteins and secreted proteins; host or cells: HEK293 (fixed and live)
# T3 sequence (P25103 whole entry): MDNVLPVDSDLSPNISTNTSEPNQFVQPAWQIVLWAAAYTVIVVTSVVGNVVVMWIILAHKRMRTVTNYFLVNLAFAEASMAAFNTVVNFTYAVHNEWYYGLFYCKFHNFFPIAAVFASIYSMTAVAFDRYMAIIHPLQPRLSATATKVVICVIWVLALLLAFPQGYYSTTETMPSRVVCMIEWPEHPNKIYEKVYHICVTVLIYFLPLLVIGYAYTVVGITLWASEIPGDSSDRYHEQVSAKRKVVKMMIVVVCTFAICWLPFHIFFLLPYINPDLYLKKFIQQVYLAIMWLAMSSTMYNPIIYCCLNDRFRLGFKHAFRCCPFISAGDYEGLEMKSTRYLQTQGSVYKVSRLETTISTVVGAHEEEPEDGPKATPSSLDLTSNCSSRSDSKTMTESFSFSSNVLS
# Description: as §1, §2, §3, §4
# [7] = test system: IL-8; assay: IL-8 secretion in LPS-treated HepG2 cells; type: cell-based; conditions: peptide 5 ng/ml for 24 h, then 100 ng/mL LPS for 24 h
# Description: FIG. 4 illustrates peptide of SEQUENCE ID NO. […] HepG2 cells were treated with peptide (5 ng/ml) for 24 h before treating with 100 ng/mL of LPS for 24 h. Data presented are the mean±SEM of at least 2 independent experiments. (*p<0.05 **p<0.01 ***p<0.001)
# HepG2 cells were treated with peptide (5 ng/ml) for 24 h before treating with 100 ng/mL of LPS for 24 h. Data presented are the mean±SEM of at least two independent experiments. (*p<0.05 **p<0.01 ***p<0.001)
# [8] = test system: α-SMA; assay: Anti-fibrotic activity in human primary hepatic stellate cells (α-SMA); type: cell-based
# Description: FIG. 5A and B illustrate peptide of SEQUENCE ID NO. […] (A) Confocal imaging of human stellate cells treated with TGF-β1 to stimulate expression of α-SMA before treatment with peptide (5 nM). (B) Quantification of α-SMA expression.
# Human stellate cells were treated with TGF-β1 to stimulate expression of α-SMA (smooth muscle action; primary marker for fibrosis) before treatment with the peptide (5 nM; SEQUENCE ID NO. 1). Confocal imaging of the cells was undertaken.
# [9] = test system: human skeletal muscle cells (HSKMC Cells); assay: Cell penetration imaging in human skeletal muscle cells; type: cell-based; conditions: 60 mins incubation, CY5 tagged peptide
# Description: An array of imaging studies was conducted to determine the kinetics and nature of the peptide (SEQUENCE ID NO. 1) interaction with target cell types. These experiments were required to determine if the peptide target was an intra or extra cellular protein. […] Control staining with the unlabelled CY5 dye should no uptake in this cell type.
# [10] = target: T4, Panx1 (Homo sapiens, UniProt Q96RD7); assay: Intracellular peptide concentration after PANX1 activation (Caco2); type: cell-based; set-up: endogenous in cells; host or cells: Caco2; conditions: Caco2 cells, before and after channel activation by increased extracellular calcium
# T4 sequence (Q96RD7 whole entry): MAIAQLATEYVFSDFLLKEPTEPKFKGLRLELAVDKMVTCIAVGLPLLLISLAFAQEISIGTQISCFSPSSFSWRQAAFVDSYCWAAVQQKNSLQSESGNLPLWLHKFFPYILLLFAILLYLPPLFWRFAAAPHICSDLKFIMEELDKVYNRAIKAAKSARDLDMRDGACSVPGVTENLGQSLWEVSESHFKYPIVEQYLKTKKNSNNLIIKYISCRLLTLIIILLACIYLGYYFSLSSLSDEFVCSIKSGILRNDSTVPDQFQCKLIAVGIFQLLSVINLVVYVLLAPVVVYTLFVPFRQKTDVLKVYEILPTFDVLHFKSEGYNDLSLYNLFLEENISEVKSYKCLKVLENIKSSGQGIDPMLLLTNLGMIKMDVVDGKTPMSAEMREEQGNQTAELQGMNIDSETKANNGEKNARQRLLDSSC
# Description: The peptide of the invention (SEQUENCE ID NO. 1) was added to cells (Caco2). The PANX1 channel was activated in cells by increasing extracellular calcium levels. The intracellular concentration of the peptide was measured before and after activation.
# [11] = target: T4, Panx1; assay: Ca2+ flux assay and flow cytometry in THP-1 cells; type: cell-based; set-up: endogenous in cells; host or cells: THP-1; conditions: 45 s preincubation with 1 μM peptide, ATP stimulation
# Source text: FIG. 9A, B and C illustrate downregulation of ATP mediated Ca2+ ions flux by the peptide (SEQUENCE ID NO. 1). ATP treatment of THP-1 cells causes an increase in detection of FITC labelled Ca^2+ ions (A). […] Comparison of FITC fluorescent units detected via flow cytometry, independent of the peptide and in the presence of the peptide (C).
# Panx-1 binding with the peptide (SEQUENCE ID NO. 1) was investigated using a Ca^2+ flux assay and flow cytometry. Panx-1 plays an important role in regulating the Ca^2+ ion and ATP balance at the cell membrane. This relationship can be leveraged to monitor the activity of Panx1. Blocking Panx1 should lead to a significant decrease in Ca^2+ flux in the cell, in response to ATP stimulation.
# THP-1 cells were incubated with a FITC fluorescent dye for a period of 30 min in order to label intracellular Ca^2+ ions. Cells were then stimulated with ATP to drive calcium flux from the cell, this increase in fluorescence is then detected by flow cytometry. Prior to ATP stimulation, the cells are incubated with 1 μM doses of the peptide in order to investigate if a drop in calcium flux is observed, this drop caused by binding of the peptide to Panx1, thus inhibiting ATP mediated calcium flux.
# [12] = test system: 5528 full-length human plasma membrane proteins and secreted proteins; assay: Retrogenix cell microarray screen on fixed HEK293 cells; type: binding
# Description: as §1, §2, §3, §4
# [13] = target: T2, SLC35F2; assay: cell microarray, CY5-labelled peptide on fixed HEK293 cells expressing human plasma membrane proteins
# [14] = target: T5, TACR1 (Substance P receptor) (human, UniProt P25103 1-407); assay: as above
# T5 construct: whole, on cells
# T5 sequence (P25103 whole entry): as the sequence (P25103 whole entry) above
molecule,measurement,setting,value
CCNC(=O)[C@@H]1CCCN1C(=O)[C@H](CCCNC(=N)N)NC(=O)[C@H](CC(C)C)NC(=O)[C@@H](COC(C)(C)C)NC(=O)[C@H](Cc1ccc(O)cc1)NC(=O)[C@H](CO)NC(=O)[C@H](Cc1c[nH]c2ccccc12)NC(=O)[C@H](Cc1cnc[nH]1)NC(=O)[C@@H]1CCC(=O)N1 [buserelin],half-life,"[1]; in humans, in words",much longer half-life
NC(=O)CC[C@@H]1NC(=O)[C@H](Cc2ccccc2)NC(=O)[C@H](Cc2ccc(O)cc2)NC(=O)CCSSC[C@@H](C(=O)N2CCC[C@H]2C(=O)N[C@H](CCCN=C(N)N)C(=O)NCC(N)=O)NC(=O)[C@H](CC(N)=O)NC1=O [desmopressin],half-life,"[1]; human, in vivo",3.7 h
C[C@@H](O)[C@@H]1NC(=O)[C@H](CCCCN)NC(=O)[C@@H](Cc2c[nH]c3ccccc23)NC(=O)[C@H](Cc2ccccc2)NC(=O)[C@@H](NC(=O)[C@H](N)Cc2ccccc2)CSSC[C@@H](C(=O)N[C@H](CO)[C@@H](C)O)NC1=O [octreotide],plasma half life time,[2],1.5 h
same,fraction unbound,[3],0.65
same,half-life,[1]; in humans,about 100 min
NC(=O)CC[C@@H]1NC(=O)[C@H](Cc2ccccc2)NC(=O)[C@H](Cc2ccc(O)cc2)NC(=O)[C@@H](N)CSSC[C@@H](C(=O)N2CCC[C@H]2C(=O)N[C@@H](CCCN=C(N)N)C(=O)NCC(N)=O)NC(=O)[C@H](CC(N)=O)NC1=O [vasopressin],half-life,[1]; in humans,0.167 to 0.583 h
WKDEAGKPLVK [SEQUENCE ID NO. 1],binding / specific interaction with PANX1,[4],Highly Selective Targets
same,binding / specific interaction with SLC35F2,[5],Highly Selective Targets
same,binding / specific interaction with TACR1,[6],Highly Selective Targets
same,secretion of IL-8,[7],reduces the secretion of IL-8
same,anti-fibrotic activity compared with Elafibranor,[8]; equivalent molar doses,outperformed Elafibranor
same,α-SMA expression,"[8]; human stellate cells treated with TGF-β1, peptide 5 nM, confocal imaging",decrease in α-SMA expression
same,intracellular accumulation,[9],significant intracellular accumulation
same,intracellular concentration of the peptide,[10],increased when the channel is activated
same,ATP mediated Ca2+ ion flux,[11],blocks ATP mediated Ca^2+ ion flux
"pep_HTWCFL: the CY5 labelled version of SEQUENCE ID NO. 1 (WKDEAGKPLVK; also: Cy5 label, position not given here)",primary hits in initial screening,[12]; 0.01 μg/ml test peptide on fixed cells for 30 minutes,43
same,specific interactions for the test peptide after re-expression of primary hits,"[12]; re-tested with 0.01 μg/ml and 0.05 μg/ml test peptide, fixed cells",Nine
same,binding / specific interaction with PANX1,[4],specific interactions
same,signal to background,[4]; fixed cells,greatest signal to background
same,binding signal on live cells,[4]; live cell microarray,lack of signals seen on live cells
same,binding / specific interaction with SLC35F2,[5],specific interactions
same,specific interaction with SLC35F2,[5]; live cell microarray,specific interactions
same,binding / specific interaction with TACR1,[6],specific interactions
same,specific interaction with TACR1,[6]; live cell microarray,specific interactions
"WKDEAGKPLVK-Cy5 (also called test peptide; C-terminal CY5 Tagged peptide) [CY5-labelled peptide (pep_HTWCFL, the CY5 labelled version of SEQUENCE ID NO. 1)]",binding result,[13],binds
same,binding result,[14],binds
